{
  "source": "ChEMBL document CHEMBL1201862",
  "about": "“PubChem BioAssay data set” (2004)",
  "test_in_all_cases": "NCI tumour cell line growth inhibition, 48 h",
  "key": {"CCRF-CEM": {"system": "CCRF-CEM"}, "SNB-78": {"system": "SNB-78"}, "DMS-114": {"system": "DMS-114"}, "BT-549": {"system": "BT-549"}, "LXFL 529": {"system": "LXFL 529"}, "DLD-1": {"system": "DLD-1"}, "Hs-578T": {"system": "Hs-578T"}, "SN12C": {"system": "SN12C"}, "NCI-H226": {"system": "NCI-H226"}, "XF498": {"system": "XF498"}, "UACC-257": {"system": "UACC-257"}, "SK-OV-3": {"system": "SK-OV-3"}, "PC-3": {"system": "PC-3"}, "HCT-116": {"system": "HCT-116"}, "A498": {"system": "A498"}, "LOX IMVI": {"system": "LOX IMVI"}, "NCI/ADR-RES": {"system": "NCI/ADR-RES"}, "MDA-N": {"system": "MDA-N"}, "HOP-18": {"system": "HOP-18"}, "HCC 2998": {"system": "HCC 2998"}, "KM-20L2": {"system": "KM-20L2"}, "DMS-273": {"system": "DMS-273"}, "A549": {"system": "A549"}, "M19-MEL": {"system": "M19-MEL"}, "SK-MEL-5": {"system": "SK-MEL-5"}, "MDA-MB-435": {"system": "MDA-MB-435"}, "SW-620": {"system": "SW-620"}, "UACC-62": {"system": "UACC-62"}, "M14": {"system": "M14"}, "OVCAR-3": {"system": "OVCAR-3"}, "RXF 393": {"system": "RXF 393"}, "HL-60": {"system": "HL-60"}, "UO-31": {"system": "UO-31"}, "SNB-75": {"system": "SNB-75"}, "RPMI-8226": {"system": "RPMI-8226"}, "IGROV-1": {"system": "IGROV-1"}, "U-251": {"system": "U-251"}, "MOLT-4": {"system": "MOLT-4"}, "SNB-19": {"system": "SNB-19"}, "KM12": {"system": "KM12"}, "786-0": {"system": "786-0"}, "CAKI-1": {"system": "CAKI-1"}, "NCI-H460": {"system": "NCI-H460"}, "SK-MEL-28": {"system": "SK-MEL-28"}, "SF-268": {"system": "SF-268"}, "HOP-62": {"system": "HOP-62"}, "NCI-H522": {"system": "NCI-H522"}, "HCT-15": {"system": "HCT-15"}, "K562": {"system": "K562"}, "Malme-3M": {"system": "Malme-3M"}, "OVCAR-4": {"system": "OVCAR-4"}, "OVCAR-8": {"system": "OVCAR-8"}, "SK-MEL-2": {"system": "SK-MEL-2"}, "ACHN": {"system": "ACHN"}, "SF-539": {"system": "SF-539"}, "TK-10": {"system": "TK-10"}, "RXF 631": {"system": "RXF 631"}, "COLO 205": {"system": "COLO 205"}, "SR": {"system": "SR"}},
  "note": "Values joined by “and” are separate entries in the source; they are usually repeats but may differ in a detail not shown here. Equal entries are not always repeated.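 Interpolation was linear, between the two tested concentrations surrounding the appropriate level; five concentrations were tested over 48 hours in 96-well plates. GI50 = concentration required for 50% inhibition of growth.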 Active and inactive are the calls of the source. No stated cut-off is given here; in the data, active = GI50 up to about 1.1 µM and inactive = higher.",
  "data": [
    {"smiles": "COC1=C(N)C(=O)c2nc(-c3nc(C(=O)O)c(C)c(-c4ccc(OC)c(OC)c4O)c3N)ccc2C1=O", "note": "[STREPTONIGRIN]", "values": [
      {"measurement": "GI50", "setting": "CCRF-CEM", "result": "< 10 nM (active) and 6.01 nM (active)"},
      {"measurement": "GI50", "setting": "SNB-78", "result": "19.4 nM (active) and < 10 nM (active)"},
      {"measurement": "GI50", "setting": "DMS-114", "result": "< 0.01 µM (active)"},
      {"measurement": "GI50", "setting": "BT-549", "result": "0.00526 µM (active)"},
      {"measurement": "GI50", "setting": "LXFL 529", "result": "0.01 µM (active)"},
      {"measurement": "GI50", "setting": "DLD-1", "result": "0.0131 µM (active)"},
      {"measurement": "GI50", "setting": "Hs-578T", "result": "< 0.01 µM (active)"},
      {"measurement": "GI50", "setting": "SN12C", "result": "0.00785 µM (active)"},
      {"measurement": "GI50", "setting": "NCI-H226", "result": "< 10 nM (active) and 5.73 nM (active)"},
      {"measurement": "GI50", "setting": "XF498", "result": "< 0.01 µM (active)"},
      {"measurement": "GI50", "setting": "UACC-257", "result": "7.87 nM (active) and < 10.7 nM (active)"},
      {"measurement": "GI50", "setting": "SK-OV-3", "result": "0.00826 µM (active)"},
      {"measurement": "GI50", "setting": "PC-3", "result": "0.0071 µM (active)"},
      {"measurement": "GI50", "setting": "HCT-116", "result": "0.00619 µM (active)"},
      {"measurement": "GI50", "setting": "A498", "result": "8.11 nM (active) and 12.6 nM (active)"},
      {"measurement": "GI50", "setting": "LOX IMVI", "result": "0.00581 µM (active)"},
      {"measurement": "GI50", "setting": "NCI/ADR-RES", "result": "0.00893 µM (active)"},
      {"measurement": "GI50", "setting": "MDA-N", "result": "0.00792 µM (active)"},
      {"measurement": "GI50", "setting": "HOP-18", "result": "< 0.01 µM (active)"},
      {"measurement": "GI50", "setting": "HCC 2998", "result": "5.65 nM (active) and < 10.9 nM (active)"},
      {"measurement": "GI50", "setting": "KM-20L2", "result": "10 nM (active) and 19 nM (active)"},
      {"measurement": "GI50", "setting": "DMS-273", "result": "< 0.01 µM (active)"},
      {"measurement": "GI50", "setting": "A549", "result": "0.00505 µM (active)"},
      {"measurement": "GI50", "setting": "M19-MEL", "result": "0.01 µM (active)"},
      {"measurement": "GI50", "setting": "SK-MEL-5", "result": "< 10 nM (active) and 5.81 nM (active)"},
      {"measurement": "GI50", "setting": "MDA-MB-435", "result": "< 10 nM (active) and 8.59 nM (active)"},
      {"measurement": "GI50", "setting": "SW-620", "result": "6.03 nM (active) and 10 nM (active)"}
    ]},
    {"smiles": "C#CC[C@]12CC(=O)CC[C@H]1CC(=O)C2", "values": [
      {"measurement": "GI50", "setting": "UACC-62", "result": "> 100 µM (inactive)"},
      {"measurement": "GI50", "setting": "CCRF-CEM", "result": "> 100 µM (inactive)"},
      {"measurement": "GI50", "setting": "SNB-78", "result": "> 100 µM (inactive)"},
      {"measurement": "GI50", "setting": "M14", "result": "> 100 µM (inactive)"},
      {"measurement": "GI50", "setting": "OVCAR-3", "result": "> 100 µM (inactive)"},
      {"measurement": "GI50", "setting": "RXF 393", "result": "> 100 µM (inactive)"},
      {"measurement": "GI50", "setting": "HL-60", "result": "> 100 µM (inactive)"},
      {"measurement": "GI50", "setting": "LXFL 529", "result": "> 100 µM (inactive)"},
      {"measurement": "GI50", "setting": "DLD-1", "result": "> 100 µM (inactive)"},
      {"measurement": "GI50", "setting": "UO-31", "result": "> 100 µM (inactive)"},
      {"measurement": "GI50", "setting": "SNB-75", "result": "> 100 µM (inactive)"},
      {"measurement": "GI50", "setting": "RPMI-8226", "result": "> 100 µM (inactive)"},
      {"measurement": "GI50", "setting": "IGROV-1", "result": "> 100 µM (inactive)"},
      {"measurement": "GI50", "setting": "SN12C", "result": "> 100 µM (inactive)"},
      {"measurement": "GI50", "setting": "U-251", "result": "> 100 µM (inactive)"},
      {"measurement": "GI50", "setting": "MOLT-4", "result": "> 100 µM (inactive)"},
      {"measurement": "GI50", "setting": "SNB-19", "result": "> 100 µM (inactive)"},
      {"measurement": "GI50", "setting": "KM12", "result": "> 100 µM (inactive)"},
      {"measurement": "GI50", "setting": "786-0", "result": "> 100 µM (inactive)"},
      {"measurement": "GI50", "setting": "CAKI-1", "result": "> 100 µM (inactive)"},
      {"measurement": "GI50", "setting": "NCI-H460", "result": "> 100 µM (inactive)"},
      {"measurement": "GI50", "setting": "NCI-H226", "result": "> 100 µM (inactive)"},
      {"measurement": "GI50", "setting": "SK-MEL-28", "result": "> 100 µM (inactive)"},
      {"measurement": "GI50", "setting": "SF-268", "result": "> 100 µM (inactive)"},
      {"measurement": "GI50", "setting": "UACC-257", "result": "> 100 µM (inactive)"},
      {"measurement": "GI50", "setting": "HOP-62", "result": "> 100 µM (inactive)"},
      {"measurement": "GI50", "setting": "NCI-H522", "result": "> 100 µM (inactive)"},
      {"measurement": "GI50", "setting": "SK-OV-3", "result": "> 100 µM (inactive)"},
      {"measurement": "GI50", "setting": "HCT-116", "result": "> 100 µM (inactive)"},
      {"measurement": "GI50", "setting": "HCT-15", "result": "> 100", "unit": "µM"},
      {"measurement": "GI50", "setting": "K562", "result": "> 100 µM (inactive)"},
      {"measurement": "GI50", "setting": "Malme-3M", "result": "> 100 µM (inactive)"},
      {"measurement": "GI50", "setting": "OVCAR-4", "result": "> 100 µM (inactive)"},
      {"measurement": "GI50", "setting": "A498", "result": "> 100 µM (inactive)"},
      {"measurement": "GI50", "setting": "OVCAR-8", "result": "> 100 µM (inactive)"},
      {"measurement": "GI50", "setting": "SK-MEL-2", "result": "> 100 µM (inactive)"},
      {"measurement": "GI50", "setting": "ACHN", "result": "> 100 µM (inactive)"},
      {"measurement": "GI50", "setting": "HOP-18", "result": "> 100 µM (inactive)"},
      {"measurement": "GI50", "setting": "SF-539", "result": "> 100 µM (inactive)"},
      {"measurement": "GI50", "setting": "HCC 2998", "result": "> 100 µM (inactive)"},
      {"measurement": "GI50", "setting": "KM-20L2", "result": "> 100 µM (inactive)"},
      {"measurement": "GI50", "setting": "DMS-273", "result": "> 100 µM (inactive)"},
      {"measurement": "GI50", "setting": "TK-10", "result": "> 100 µM (inactive)"},
      {"measurement": "GI50", "setting": "RXF 631", "result": "> 100 µM (inactive)"},
      {"measurement": "GI50", "setting": "COLO 205", "result": "> 100 µM (inactive)"},
      {"measurement": "GI50", "setting": "A549", "result": "> 100 µM (inactive)"},
      {"measurement": "GI50", "setting": "M19-MEL", "result": "> 100 µM (inactive)"},
      {"measurement": "GI50", "setting": "SK-MEL-5", "result": "> 100 µM (inactive)"},
      {"measurement": "GI50", "setting": "SR", "result": "> 100 µM (inactive)"},
      {"measurement": "GI50", "setting": "SW-620", "result": "> 100 µM (inactive)"}
    ]}
  ]
}
